# Data from US6492401B1, “N-[(substituted five-membered di- or triaza diunsaturated ring)carbonyl] guanidine derivatives for the treatment of ischemia” (Pfizer, Inc., priority 1998, dated 2002).
# Target: T1, human NHE-1 (Homo sapiens, UniProt P19634)
# T1 construct: expressed in transfected cells; host or cells: fibroblasts stably expressing human NHE-1 (cell line per Counillon et al., Mol. Pharmacol. 44:1041-1045, 1993)
# Experiment: Measurement of human NHE-1 inhibitory activity (NHE-mediated recovery of intracellular pH after acidification, BCECF fluorescence)
# Assay type: cell-based
# Conditions: fibroblasts stably expressing human NHE-1
# Protocol: Methodologies for measurement of human NHE-1 activity and inhibitor potency are based on those published by Watson et al., Am. J. Physiol., 24:G229-G238, 1991), where NHE-mediated recovery of intracellular pH is measured following intracellular acidification. Thus, fibroblasts stably expressing human NHE-1 (Counillon, L. et al., Mol. Pharmacol., 44:1041-1045 (1993) are plated onto collagen coated 96 well plates (50,000/well) and grown to confluence in growth media (DMEM high glucose, 10% fetal bovine serum, 50 u/ml penicillin and streptomycin). Confluent plates are incubated for 30 min at 37° C. with the pH sensitive fluorescent probe BCECF (5 μM; Molecular Probes, Eugene, Oreg.). BCECF loaded cells are incubated for 30 min at 37° C. in acid loading media (70 mM choline chloride, 50 mM NHCl4, 5 mM KCl, 1 mM MgCl2, 1.8 mM CaCl2, 5 mM glucose, 10 mM HEPES, pH 7.5), and then placed in a Fluorescent Imaging Plate Reader (Molecular Devices, CA). BCECF fluorescence is monitored using excitation and emission wavelengths of 485 nm and 525 nM, respectively. Intracellular acidification is initiated via rapid replacement of acid loading media with recovery media (120 mM NaCl, 5 mM KCl, 1 mM MgCl2, 1.8 mM CaCl2, 5 mM glucose, 10 mM HEPES, pH 7.5)±test compound, and NHE-mediated recovery of intracellular pH is monitored as the subsequent time-dependent increase BCECF fluorescence.
# T1 sequence (P19634 whole entry): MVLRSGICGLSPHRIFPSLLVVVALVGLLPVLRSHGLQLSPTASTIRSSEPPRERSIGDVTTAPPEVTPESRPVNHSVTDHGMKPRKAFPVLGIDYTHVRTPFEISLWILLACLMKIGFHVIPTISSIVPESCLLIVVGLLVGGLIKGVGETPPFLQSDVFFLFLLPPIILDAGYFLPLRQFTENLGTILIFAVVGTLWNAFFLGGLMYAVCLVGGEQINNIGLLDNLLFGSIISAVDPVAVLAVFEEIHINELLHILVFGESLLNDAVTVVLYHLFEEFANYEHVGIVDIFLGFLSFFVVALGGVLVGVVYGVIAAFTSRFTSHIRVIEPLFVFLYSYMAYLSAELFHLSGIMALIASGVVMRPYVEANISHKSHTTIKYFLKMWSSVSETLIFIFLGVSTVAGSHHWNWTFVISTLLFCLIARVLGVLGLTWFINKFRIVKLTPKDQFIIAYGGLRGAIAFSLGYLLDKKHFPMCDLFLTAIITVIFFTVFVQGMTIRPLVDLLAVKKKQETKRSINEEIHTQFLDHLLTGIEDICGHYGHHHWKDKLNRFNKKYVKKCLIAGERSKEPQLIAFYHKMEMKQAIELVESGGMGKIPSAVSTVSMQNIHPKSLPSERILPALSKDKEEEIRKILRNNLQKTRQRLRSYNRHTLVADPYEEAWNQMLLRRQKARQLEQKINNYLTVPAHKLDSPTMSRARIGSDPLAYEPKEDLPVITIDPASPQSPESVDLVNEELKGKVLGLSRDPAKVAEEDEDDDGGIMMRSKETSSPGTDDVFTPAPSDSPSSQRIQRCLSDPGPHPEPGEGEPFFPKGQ
structure (smiles),measurement,value
CC(C)c1ccc(C(=O)NC(=N)N)cc1S(C)(=O)=O [HOE-642],IC50,500 nM
